US20070173486A1, “Azetidinecarboxamide derivatives and their use in the treatment of cb1 receptor mediated disordrs” (VERNALIS RESEARCH LIMITED, priority 2003, published 2007)

Target: T1, recombinant human CB1 receptors (Homo sapiens, UniProt P21554)
T1 construct: expressed in transfected cells; host or cells: HEK293
Assay: Binding to CB1 Receptors
Details: [3H]-SR-141716A 1 nM; membranes from HEK293 cells expressing recombinant hCB1; Ki calculated from IC50 (Cheng-Prusoff)
Experimental: The binding of compounds of Formula I to recombinant human CB1 receptors was determined in vitro by standard methods, with reference to the procedure described by Rinaldi-Carmona et al. (Rinaldi-Carmona, M., Pialot, F., Congy, C., Redon, E., Barth, F., Bachy, A., Breliere, J. C., Soubre, P., LeFur, G., Life Sci. 1996, 58(15), 1239-1247). Membranes were prepared from HEK293 cells expressing recombinant hCB1 receptors. Binding assays are performed in a total volume of 250 μL, containing [^3H]-SR-141716A (1 nM final concentration), membranes and test compound. Non-specific binding is determined using CP55,940 (10 μM). Serial dilutions are performed starting from test compounds as 10 mM solutions in DMSO. Compounds are tested over the concentration range 10^−10 M to 10^−5 M. Ki values are calculated from IC50 values using the Cheng-Prusoff equation.

T1 sequence (P21554 whole entry): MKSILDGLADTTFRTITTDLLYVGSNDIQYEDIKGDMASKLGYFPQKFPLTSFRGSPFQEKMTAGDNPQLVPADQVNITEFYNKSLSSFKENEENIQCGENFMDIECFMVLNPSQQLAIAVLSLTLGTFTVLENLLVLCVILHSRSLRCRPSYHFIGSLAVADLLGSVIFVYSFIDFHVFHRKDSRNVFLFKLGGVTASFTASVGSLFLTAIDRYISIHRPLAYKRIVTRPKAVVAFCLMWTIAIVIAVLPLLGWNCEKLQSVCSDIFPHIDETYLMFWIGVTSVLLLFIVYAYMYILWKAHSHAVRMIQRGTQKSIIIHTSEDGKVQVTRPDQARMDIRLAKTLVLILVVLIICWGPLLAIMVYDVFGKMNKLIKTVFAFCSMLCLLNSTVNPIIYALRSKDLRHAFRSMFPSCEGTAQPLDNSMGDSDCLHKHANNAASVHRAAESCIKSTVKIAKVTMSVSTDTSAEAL

Row | SMILES | Ki
1 | CC(C)(C)NC(=O)N1CC(OC(c2ccc(Cl)cc2)c2cccnc2Cl)C1 (racemic) [Example 32, 3-[4-chloro-[…]-(2-chloropyridin-3-yl)benzyloxy]-N-(tert-butyl)azetidine-1-carboxamide] | 27.7 nM
2 | CC(C)(C)OC(=O)N1CCCN(C(=O)N2CC(OC(c3ccc(Cl)cc3)c3ccccc3Cl)C2)CC1 (stereo not drawn) [Example 1, 4-[3-(2,4′-dichlorobenzhydryloxy)azetidine-1-carbonyl]-[1,4]diazepine-1-carboxylic acid tert-butyl ester] | 0.8 nM
3 | CN(Cc1ccccc1)C(=O)N1CC(OC(c2ccc(Cl)cc2)c2ccccc2C(F)(F)F)C1 (stereo not drawn) [Example 4, 3-[2-(trifluoromethyl)-4′-chlorobenzhydryloxy]-N-methyl-N-benzyl-azetidine-1-carboxamide] | 1.5 nM

Further lines, results first:

Row | Ki | SMILES
4 | 8.6 nM | CC(C)(C)NC(=O)N1CC(OC(c2ccc(Cl)cc2)c2cccnc2Cl)C1 (single isomer, unassigned) [Example 34, 3-[(S*)-4-chloro-[…]-(2-chloropyridin-3-yl)benzyloxy]-N-(tert-butyl)azetidine-1-carboxamide]
5 | 3.2 nM | CO[C@H](C(=O)N1CC(OC(c2ccc(Cl)cc2)c2ccc(Cl)cc2Cl)C1)c1ccccc1 (stereo partly drawn) [Example 11, 3-(2,4,4′-trichlorobenzhydryloxy)-1-[(S)-2-methoxy-2-phenylethanoyl]azetidine]
6 | 5.5 nM | CCCCS(=O)(=O)N1CC(OC(c2ccc(Cl)cc2)c2ccc(Cl)cc2Cl)C1 (stereo not drawn) [Example 20, 1-(n-butyl)sulfonyl-3-(2,4,4′-trichlorobenzhydryloxy)azetidine]
